Laboratory results: US5272175A, “Substituted tyrosyl diamide compounds” (priority 1992, dated 1993)
Structures can show the parent of a compound that is named as a salt. Where two headings read alike, the source gives them in different places.

Experiments:
δ opioid receptors = δ opioid receptors (Rattus norvegicus, UniProt P33533); assay: Opiate Binding Assay, displacement of 3[H]-DSLET from δ receptors; settings: for Mean IC50 μ/δ Ratio: ratio of mean IC50 values for μ and δ, above 1.0 = more δ specific
μ opioid receptors = μ opioid receptors (Rattus norvegicus, UniProt P33535); assay: Opiate Binding Assay, displacement of 3[H]-DAMPGO from μ receptors
[1] = read-out: Mean IC50 Value, δ, rat forebrain membranes, 3[H]-DSLET 1.0 nM, 37° C., pH 7.4
[2] = read-out: Mean IC50 Value, μ, rat forebrain membranes, 3[H]-DAMPGO 2.0 nM, 37° C., pH 7.4

Chain of δ opioid receptors (P33533 whole entry): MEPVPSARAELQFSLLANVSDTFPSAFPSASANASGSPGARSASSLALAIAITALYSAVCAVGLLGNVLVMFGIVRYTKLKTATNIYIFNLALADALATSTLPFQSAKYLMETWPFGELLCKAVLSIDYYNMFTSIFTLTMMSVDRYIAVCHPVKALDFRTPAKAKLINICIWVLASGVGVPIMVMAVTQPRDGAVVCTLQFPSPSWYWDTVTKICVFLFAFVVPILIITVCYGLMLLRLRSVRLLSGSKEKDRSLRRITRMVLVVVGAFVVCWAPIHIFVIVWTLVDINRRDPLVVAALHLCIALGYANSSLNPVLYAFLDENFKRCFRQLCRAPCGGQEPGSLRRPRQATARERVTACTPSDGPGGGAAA
Chain of μ opioid receptors (P33535 whole entry): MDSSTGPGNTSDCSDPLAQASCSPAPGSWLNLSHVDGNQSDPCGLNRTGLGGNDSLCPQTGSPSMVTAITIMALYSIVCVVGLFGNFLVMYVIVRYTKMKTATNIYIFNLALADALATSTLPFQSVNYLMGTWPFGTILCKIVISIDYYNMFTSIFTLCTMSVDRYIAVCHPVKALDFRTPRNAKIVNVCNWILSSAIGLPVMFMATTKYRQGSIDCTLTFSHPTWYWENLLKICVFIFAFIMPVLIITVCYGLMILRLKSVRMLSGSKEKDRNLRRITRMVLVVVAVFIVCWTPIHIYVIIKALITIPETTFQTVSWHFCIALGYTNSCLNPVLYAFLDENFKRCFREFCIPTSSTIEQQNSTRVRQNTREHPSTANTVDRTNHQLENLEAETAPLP

SMILES	IC50 (δ opioid receptors) [nM]	Mean IC50 μ/δ Ratio (δ opioid receptors)	IC50 (μ opioid receptors) [nM]	IC50 (δ opioid receptors; [1]) [nM]	IC50 (μ opioid receptors; [2]) [nM]
Cc1cc(O)cc(C)c1C[C@H](N)C(=O)NCCNC(=O)[C@@H](N)Cc1ccccc1 [Example 24, αS-amino-N-[2-[[2S-amino-3-(4-hydroxy-2,6-dimethylphenyl) -1-oxopropyl]amino]ethyl]benzenepropanamide, dihydrochloride]	562	0.01	3.7	–	–
CC(=O)N[C@H](C(=O)NCC(C)(C)NC(=O)[C@@H](N)Cc1c(C)cc(O)cc1C)c1ccccc1 [Example 20, N-[2-[[2S-(acetylamino)-2-phenylacetyl]amino]-1,1-dimethylethyl]-αS-amino-4-hydroxy-2,6-dimethylbenzenepropanamide, hydrochloride]	19.3	0.06	1.2	–	–
CC(=O)N[C@@H](Cc1ccccc1)C(=O)N1CCN(C(=O)[C@@H](N)Cc2c(C)cc(O)cc2C)CC1 [Example 54, N-[1S-[[4-[2-S-Amino-3-(4-hydroxy-2,6-dimethylphenyl)-1-oxopropyl]-1-piperazinyl]carbonyl]-2-phenylethyl]acetamide, monohydrochloride]	88.8	0.04	3.3	–	–
CC(=O)N[C@@H](Cc1ccc(F)cc1)C(=O)NCC(C)(C)NC(=O)[C@@H](N)Cc1c(C)cc(O)cc1C [Example 6, αS-(Acetylamino)-N-2-[2S-amino-3-(4-hydroxy-2,6-dimethylphenyl) -1-oxopropyl]amino]-2-methyloropyl]-4-fluorobenzenepropanamide, monohydrochloride]	1.8	0.6	1.1	–	–
Cc1cc(O)cc(C)c1C[C@H](N)C(=O)NCC(C)(C)NC(=O)[C@H](Cc1ccccc1)NC(=O)OCc1ccccc1 [Example 26, Phenylmethyl[1S-[[[2-[[2S-amino-3-(4-hydroxy-2,6-dimethylphenyl)-1-oxopropyl]amino]-1,1-dimethylethyl1-amino]carbonyl]-2-phenylethyl]carbamate, monohydrochloride]	29.8	0.6	19	–	–
Cc1cc(O)cc(C)c1C[C@H](N)C(=O)NC(C)(C)CNC(=O)[C@@H](N)Cc1ccccc1 [Example 12, αS-amino-N-[2-[2S-amino-3-(4-hydroxy-2,6-dimethylphenyl) -1-oxopropyl]amino]-2-methylpropyl]benzenepropanamide, dihydrochloride]	31.4	0.1	3.4	–	–
Cc1cc(O)cc(C)c1C[C@H](N)C(=O)NC(C)(C)CNC(=O)[C@H](Cc1ccccc1)NC(=O)NCc1ccccc1 [Example 33, αS-amino-N-[1,1-dimethyl-2-[[1-oxo-3-phenyl-2S-[[[(phenylmethyl)amino]carbonyl]amino]propyl]-amino]ethyl]-4-hydroxy-2,6-dimethylbenzeneprooanamide, hydrochloride]	~2	–	< 10	–	–
Cc1cc(O)cc(C)c1C[C@H](N)C(=O)NC(C)(C)CNC(=O)[C@H](Cc1ccc(F)cc1)NC(=O)OCc1ccccc1 [Example 8, Phenylmethyl[1S-[[[2-[[2S-amino-3-(4-hydroxy-2,6-dimethylohenyl)-1-oxopropyllamino]-methylpropyl]amino]-carbonyl]-2-(4-fluorophenyl)ethyl]carbamate. monohydrochloride]	28	–	< 10	–	–
C=CCNC(=O)N[C@@H](Cc1ccccc1)C(=O)NCC(C)(C)NC(=O)[C@@H](N)Cc1c(C)cc(O)cc1C [Example 28, αS-amino-N-[1,1-dimethyl-2-[1-oxo-3-phenyl-2S-[(2-propenylamino)carbonyl]amino]propyl]amino]ethyl]-4-hydroxy-2,6-dimethylbenzenepropanamide, monohydrochloride]	~2	–	< 10	–	–
Cc1cc(O)c(C)c(C)c1C[C@@H](N)C(=O)NC(C)(C)CNC(=O)[C@H](Cc1ccccc1)NC(=O)OCc1ccccc1 [Example 31, Phenylmethyl[1S[[[2-[[2R-amino-3-(4-hydroxy-2,3,6-trimethylphenyl) -1-oxopropyl]amino]-2-methylpropyl]amino]carbonyl1-2-phenylethyl]carbamate, hydrochloride]	> 100	–	100	–	–
Cc1cc(O)c(C)c(C)c1C[C@H](N)C(=O)NC(C)(C)CNC(=O)[C@H](Cc1ccccc1)NC(=O)OCc1ccccc1 [Example 30, Phenylmethyl[1S[[[2-[[2S-amino-3-(4-hydroxy-2,3,6-trimethylphenyl)-1-oxopropyl]amino]-2-methylpropyl]amino]carbonyl]-2-phenylethyl]carbamate, hydrochloride]	100	–	< 10	–	–
CC(=O)N[C@@H](Cc1c(C)cccc1C)C(=O)NCCNC(=O)[C@@H](N)Cc1ccc(O)cc1 [Example 51, αS-(Acetylamino)-N-[2-[[2S-amino-3-(4-hydroxyphenyl)-1-oxopropyl]amino]ethyl]-2,6-dimethylbenzenepropanamide. hydrochloride]	> 50	–	–	–	–
CCOC(=O)CNC(=O)N[C@@H](Cc1ccccc1)C(=O)NCC(C)(C)NC(=O)[C@@H](N)Cc1c(C)cc(O)cc1C [Example 35, hydrochloride]	–	–	–	~2	< 10
Cc1cc(O)cc(C)c1C[C@H](N)C(=O)NC(C)(C)CNC(=O)[C@H](Cc1ccccc1)NC(=O)C(F)(F)F [Example 14, αS-Amino-N-[1,1-dimethyl-2-[[1-oxo-3-phenyl-2S-[[trifluoroacetyl-amino]propyl]aminoethyl]-4-hydroxy-2,6-dimethylbenzenepropanamide, hydrochloride]	0.64	0.8	0.54	–	–
Cc1cc(O)cc(C)c1C[C@H](N)C(=O)NCCNC(=O)[C@H](Cc1ccccc1)NC(=O)OCc1ccccc1 [Example 22, Phenylmethyl[1S-[[(2-(8 [2S-amino-3-[4-hydroxy-2,6-dimethylphenyl) -1-oxopropyl]ethylaminocarbonyl-2-phenylethylcarbamate, monohydrochloride]	3.1	0.8	2.6	–	–
CC(=O)N[C@@H](Cc1ccccc1)C(=O)Nc1cccc(NC(=O)[C@@H](N)Cc2c(C)cc(O)cc2C)c1 [Example 57, αS-(Acetylamino)-N-[3[[[2S-amino-3-[4-hydroxy-2,6-dimethylphenyl]-1-oxopropylamino]phenyl]benzenepropanamide, hydrochloride]	100	–	–	–	–
CC(=O)N[C@@H](Cc1ccccc1)C(=O)NCCNC(=O)[C@@H](N)Cc1c(C)cc(O)cc1C [Example 48, αS-(Acetylamino)-N-[(2-[[2S-amino-3-(4-hydroxy-2,6-dimethylphenyl)-1-oxopropyl]aminoethyl]benzenepropanamide, hydrochloride]	2.9	0.1	0.3	–	–
Cc1cc(O)cc(C)c1C[C@H](NC(=O)OC(C)(C)C)C(=O)NC(C)(C)CN [Example 4, 1,1-Dimethylethyl[1S-[[(2-amino-1,1-dimethylethyl)amino]carbonyl]-2-(4-hydroxy-2,6-dimethylphenyl)ethyl]carbamate]	–	10	–	100	1000
Cc1cc(O)cc(C)c1C[C@H](N)C(=O)N[C@H](C)CNC(=O)[C@H](Cc1ccccc1)NC(=O)OCc1ccccc1 [Example 46, Phenylmethyl[1S[[[2R-[[2S-amino-3-(4-hydroxy-2,6-dimethylphenyl) -1-oxopropyl]amino]propylamino]carbonyl]-2-phenylethyllcarbamate, hydrochloride]	4.2	0.2	0.88	–	–
CC(=O)N[C@@H](Cc1ccccc1)C(=O)NCC(C)(C)NC(=O)[C@H](N)Cc1c(C)cc(O)c(C)c1C [Example 41, αS-(acetylamino)-N-[2-[[2R-amino-3-(4-hydroxy-2,3,6-trimethylphenyl) -1-oxopropyl]amino]-2-methylpropyl]benzenepropanamide, monohydrochloride]	257	0.5	122	–	–
Cc1cc(O)cc(C)c1C[C@H](N)C(=O)NC(C)(C)CNC(=O)[C@H](Cc1ccccc1)NC(=O)NS(=O)(=O)c1ccccc1 [Example 59, S-amino-N-[1,1-dimethyl-2-[[1-oxo-3-phenyl-2S-[[[(phenylsulfonyl)amino]carbonyl]amino]propyl]amino]ethyl]-4-hydroxy-2,6-dimethylbenzeneoropanamide, monohydrochloride]	7.3	0.4	3.2	–	–
CC(=O)N[C@@H](Cc1ccccc1)C(=O)N1CCC(NC(=O)[C@@H](N)Cc2c(C)cc(O)cc2C)C1 (stereo partly drawn) [Example 56, N-1-[2S-(Acetylamino)-1-oxo-3-phenylpropyl]-3-pyrrolidinyl]-αS-amino-4-hydroxy-2,6-dimethylbenzenepropanamide, monohydrochloride]	50.3	1.7	85.5	–	–
Cc1cc(O)cc(C)c1C[C@H](NC(=O)OC(C)(C)C)C(=O)NCCNC(=O)[C@@H](N)Cc1ccccc1 [Example 23, 1,1-dimethylethyl[1S-[[[2-[[(2S-amino-l-oxo-3-phenylpropyl)amino]ethyl]amino]carbonyl]-2-(4-hydroxy-2,6-dimethylohenyl)ethyl]carbamate, acetate (salt)]	100	10	1000	–	–
Cc1cc(O)cc(C)c1C[C@H](NC(=O)OC(C)(C)C)C(=O)NC(C)(C)CNC(=O)[C@@H](N)Cc1ccccc1 [Example 11, acetic acid salt]	100	10	1000	–	–
CC(=O)N[C@@H](Cc1ccccc1)C(=O)NC(C)(C)CNC(=O)[C@@H](N)Cc1c(C)cc(O)cc1C [Example 39, αS-(Acetylamino)-N-[2-[[2S-amino-3-(4-hydroxy-2,6-dimethylphenyl)-1-oxopropyl]amino]-1,1-dimethylethyl]-benzenepropanamide, monohydrochloride]	7.8	0.6	4.7	–	–
